Assay results from patent US6013673A, “Naphthyloxy acetic acid derivatives” (Ono Pharmaceutical Co., Ltd., priority 1994, dated 2000).

biological target: T1, prostanoide receptor subtype (mouse EP3 α) (Mus musculus, UniProt P30557); assay: Binding assay using expression cell of prostanoide receptor subtype ([3H]-PGE2 competition); conditions: membrane fraction of CHO cells expressing mouse EP3 α; 2.5 nM [3H]-PGE2; 1 hour, room temperature; buffer pH6.0; Ki=IC50/(1+([C]/Kd)); read-out: Ki (dissociation constant)
T1 construct: expressed in transfected cells; host or cells: CHO cells (membrane fraction)
T1 sequence (P30557 1-365): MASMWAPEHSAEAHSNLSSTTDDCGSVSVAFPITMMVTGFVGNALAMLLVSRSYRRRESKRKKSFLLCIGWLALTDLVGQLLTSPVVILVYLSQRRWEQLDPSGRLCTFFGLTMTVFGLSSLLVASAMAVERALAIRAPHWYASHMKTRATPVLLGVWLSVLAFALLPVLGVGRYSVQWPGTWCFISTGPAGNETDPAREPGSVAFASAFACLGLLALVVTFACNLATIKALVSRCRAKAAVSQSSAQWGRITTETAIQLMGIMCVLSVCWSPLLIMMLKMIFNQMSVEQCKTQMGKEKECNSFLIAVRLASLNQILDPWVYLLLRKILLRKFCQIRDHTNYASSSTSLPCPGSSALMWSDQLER
Procedure: For example, in standard laboratory test, the effects of the compounds of the present invention were confirmed by inhibitory effect on binding PGE2 using expression cell of mouse receptor.
Binding Assay Using Expression Cell of Prostanoide Receptor Subtype
The preparation of membrane fraction was carried out according to the method of Sugimoto et al [J. Biol. Chem. 267, 6463-6466(1992)], using expression CHO cell of prostanoide receptor subtype (mouse EP3 α).
The standard assay mixture contained membrane fraction (0.5 mg/ml), [^3 H]-PGE2 in a final volume of […] was incubated for 1 hour at room temperature. The reaction was terminated by addition of 3 ml of ice-cold buffer. The mixture was rapidly filtered through a glass filter (GF/B). The radioactivity associated with the filter was measured by liquid scintillation counting.
Kd and Bmax values were determined from Scatchard plots [Ann. N.Y. Acad. Sci., 51, 660(1949)]. Non-specific binding was calculated as the bond in the presence of an excess ([…]) of unlabeled PGE2. In the experiment for competition of specific [^3 H]-PGE2 binding by the compounds of the present invention, [^3 H]-PGE2 was added at a concentration of 2.5 nM and the compounds of the present invention were at a concentration of 1 mM.
The following buffer was used in all reactions.
Buffer: 10 mM potassium phosphate (pH6.0), 1 mM EDTA, 10 mM MgCl2, 0.1 M NaCl
The dissociation constant (Ki) of each compound was calculated by the following equation.

Structure (SMILES)	Ki
COC(=O)COc1cccc2c(CCC(=O)NC(c3ccccc3)c3ccccc3)cccc12 [Example 1, [5-(2-diphenylmethylaminocarbonylethyl)naphthyl-1-oxy]acetic Acid Methyl Ester]	5700 nM
O=C(O)COc1cccc2c(CCC(=O)NC(c3ccccc3)c3ccccc3)cccc12 [Example 2, [5-(2-diphenylmethylaminocarbonylethyl)naphthyl-1-oxy]acetic Acid]	11 nM
O=C(CCc1cccc2c(OCCO)cccc12)NC(c1ccccc1)c1ccccc1 [Example 3, 2-[5-(2-diphenylmethylaminocarbonylethyl)naphthyl-1-oxy]ethanol]	26 nM
NC(=O)COc1cccc2c(CCC(=O)NC(c3ccccc3)c3ccccc3)cccc12 [Example 4, [5-(2-diphenylmethylaminocarbonylethyl)naphthyl-1-oxy]acetic Acid Amide]	23 nM
O=C(O)COc1cccc2c(CCNC(=O)C(c3ccccc3)c3ccccc3)cccc12 [Example 8, [5-[2-(diphenylmethylcarbonylamino)ethyl]naphthyl-1-oxy]acetic Acid]	68 nM

The remaining lines, values ahead:

Ki	Structure (SMILES)
110 nM	O=C(O)COc1cccc2c(CCC(=O)NN(c3ccccc3)c3ccccc3)cccc12 [Example 2a, [5-[2-(3,3-diphenylcarbazoyl)ethyl]naphthyl-1-oxy]acetic Acid]
50 nM	O=C(O)COc1cccc2c(CC(=O)NC(c3ccccc3)c3ccccc3)cccc12 [Example 2d, [5-(diphenylmethylaminocarbonylmethyl)naphthyl-1-oxy]acetic Acid]
830 nM	C[C@@H](NC(=O)CCc1cccc2c(OCC(=O)O)cccc12)c1ccccc1 [Example 2k, [5-[2-((1R)-1-phenylethyl)aminocarbonylethyl]naphthyl-1-oxy]acetic Acid]
890 nM	C[C@H](NC(=O)CCc1cccc2c(OCC(=O)O)cccc12)c1ccccc1 [Example 2l, [5-[2-((1S)-1-phenylethyl)aminocarbonylethyl]naphthyl-1-oxy]acetic Acid]
200 nM	CN(C)C(=O)COc1cccc2c(CCC(=O)NC(c3ccccc3)c3ccccc3)cccc12 [Example 4a, N,N-dimethyl-[5-(2-diphenylmethylaminocarbonylethyl)naphthyl-1-oxy]acetic Acid Amide]
1300 nM	O=C(COc1cccc2c(CCC(=O)NC(c3ccccc3)c3ccccc3)cccc12)NCCO [Example 4b, N-(2-hydroxyethyl)-[5-(2-diphenylmethylaminocarbonylethyl)naphthyl-1-oxy]acetic Acid Amide]
